Measured values as given in patent US20160102052A1, “Use of Cysteamine in Treating Infections caused by Yeasts/Moulds” (priority 2014, published 2016).

System: Exophiala dermatitidis CA01
Assay: Broth microdilution chequerboard analysis of Lynovex (NM001) in combination with clinical antifungals
Type: cell-based
Details: for Antifungal MIC100 / Antifungal MIC50: antifungal in isolation; for Antifungal MIC100 / Antifungal MIC100 in Combination: 72 h; for Antifungal MIC100 / Antifungal MIC50 / Antifungal MIC100 in Combination / Antifungal MIC50 in Combination: 35° C.; for FICI: antifungal with Lynovex (NM001), <0.5 Synergy, 0.5-1 Additive, >1 Indifference; for Antifungal MIC100 in Combination / Antifungal MIC50 in Combination: in combination with Lynovex (NM001)
Protocol: The aim of the experiment was to determine the effect of Lynovex (NM001) on the antifungal drug susceptibility of Exophiala dermatitidis CA01. Microtitre plates were prepared following CLSI recommendations for broth microdilution chequerboard method. These plates contained a serial doubling dilution of Lynovex (NM001) combined with serial doubling dilutions of antifungals drugs; Fluconazole, Itraconazole, Caspofungin and Amphotericin B. […] These were incubated at 35° C. and read at 72 h, 96 h, 120 h and 144 h on the BioTek plate reader. […] Three independent E. dermatitidis CA01 cultures were grown on PDA slope for 6 days at 35° C. • 7. Cultures were removed from incubator. 2 ml sterile 0.15M NaCl added to the overnight culture and cells harvested from the surface of the agar. Cells placed in fresh bijou tube. • 8. The cultures were allowed to rest for up to 10 minutes, allowing any hyphae to settle to the bottom. The top layer of conidia was removed into fresh bijou. Hyphae were discarded. • 9. […] This is continued to F12 where 100 μl is removed and discarded. • f. This dilution series was repeated in rows G-H for the remaining 2 cultures • g. Plate read at OD530 on BioTek • h. […] This preparation step occurs in two parts. First, Lynovex (NM001) and antifungals are serially diluted, down and across microtitre plates, respectively. Equal volumes of Lynovex and antifungal are then combined in a fresh microtitre plate, prior to inoculation. […] Stock solutions of Lynovex and antifungals were prepared at 4× desired concentrations. The plate layout at the end of this protocol is the final concentration in the plate following the combination of Lynovex and antifungals and the addition of the inocula. […] All other wells contain 150 μl sterile dH2O. • 9. Serial doubling dilutions are carried out from A to B whereby 150 μl is removed from A and placed into B and mixed well. Then take 150 μl B and place in C and mix well. This is repeated down to row G where the final 150 μl is discarded. […] The same procedure is repeated for the other 4 antifungals, carrying the dilutions across the plate i.e. […] At the final dilution in column 10, the final 150 μl is discarded. […] Inoculating Plates with E. dermatitidis CA01 • 6. Add 100 μl (total volume 200 μl) of the prepared E. dermatitidis CA01 culture to the all wells on the plate except wells H12. […] H12 will contain 100 μl water and 100 μl 2×RPMI-1640 alone, constituting an uninoculated control. • 8. The plate is read in the BioTek at OD530. • 9. Plates are then placed in a plastic box containing a Petri dish of water, sealed and incubated at 35° C. The presence of the water in the dish or on the tissue provides and environment of relatively high humidity. • 10. OD530 is then read at 72 h, 96 h, 120 h and 144 h and raw data processed using Microsoft Excel. • 11. Fractional Inhibitory Concentration (FIC) Index values are generated using MIC100 for 72 h data and MIC50 for later time points using the following formula: […]

For `C[C@@H]1[C@H](O)[C@@H](C)/C=C/C=C/C=C/C=C/C=C/C=C/C=C/[C@H](O[C@@H]2O[C@H](C)[C@@H](O)[C@H](N)[C@@H]2O)C[C@@H]2O[C@](O)(C[C@@H](O)C[C@@H](O)[C@H](O)CC[C@@H](O)C[C@@H](O)CC(=O)O[C@H]1C)C[C@H](O)[C@H]2C(=O)O` [Amphotericin B], the “Antifungal MIC100” value (GEOMEAN) was 0.59 µg/mL, the “Antifungal MIC50” value (GEOMEAN, 96 h) was 0.47 µg/mL and the “Antifungal MIC50” value (GEOMEAN, 120 h) was 0.47 µg/mL. For the same molecule, the “Antifungal MIC50” value (GEOMEAN, 144 h) was 0.59 µg/mL, the FICI (GEOMEAN, MIC50, 96 h) was 0.63 (2) and the FICI (GEOMEAN, MIC50, 120 h) was 0.58 (3). The FICI (GEOMEAN, MIC50, 144 h) was 0.75 (2), the FICI (GEOMEAN, MIC100, 72 h) was 0.53 (1) and the “Antifungal MIC100 in Combination” value (GEOMEAN) was 0.23 µg/mL. The “Antifungal MIC50 in Combination” value (GEOMEAN, 96 h) was 0.17 µg/mL, the “Antifungal MIC50 in Combination” value (GEOMEAN, 120 h) was 0.19 µg/mL and the “Antifungal MIC50 in Combination” value (GEOMEAN, 144 h) was 0.23 µg/mL. For the same molecule, the “Antifungal MIC100” value (MEAN) was 0.86 µg/mL, the “Antifungal MIC50” value (MEAN, 96 h) was 0.47 µg/mL and the “Antifungal MIC50” value (MEAN, 120 h) was 0.47 µg/mL. For the same molecule, the “Antifungal MIC50” value (MEAN, 144 h) was 0.63 µg/mL, the FICI (MEAN, MIC50, 96 h) was 0.64 (2) and the FICI (MEAN, MIC50, 120 h) was 0.59 (3). For the same molecule, the FICI (MEAN, MIC50, 144 h) was 0.75 (2), the FICI (MEAN, MIC100, 72 h) was 0.53 (1) and the “Antifungal MIC100 in Combination” value (MEAN) was 0.23 µg/mL. The “Antifungal MIC50 in Combination” value (MEAN, 96 h) was 0.18 µg/mL, the “Antifungal MIC50 in Combination” value (MEAN, 120 h) was 0.20 µg/mL and the “Antifungal MIC50 in Combination” value (MEAN, 144 h) was 0.23 µg/mL. The “Antifungal MIC100” value (Range) was 0.23 to 1.88 µg/mL, the “Antifungal MIC50” value (Range, 96 h) was 0.47 µg/mL and the “Antifungal MIC50” value (Range, 120 h) was 0.5 µg/mL. The “Antifungal MIC50” value (Range, 144 h) was 0.47 to 0.94 µg/mL, the “Antifungal MIC100 in Combination” value (Range) was 0.23 µg/mL and the “Antifungal MIC50 in Combination” value (Range, 96 h) was 0.12 to 0.23 µg/mL. The “Antifungal MIC50 in Combination” value (Range, 120 h) was 0.12 to 0.23 µg/mL and the “Antifungal MIC50 in Combination” value (Range, 144 h) was 0.23 µg/mL.
